Assays:
[1] = Water solubility in aqueous buffer; conditions: aqueous buffer 10 mM Tris-HCl, pH 7.4, 20° C.
Procedure: The solid compounds were added stepwise to the buffer solution. More substance is added once all the suspended material is dissolved until an equilibrium between undissolved and dissolved substance is reached. The suspension was mixed using a shaker (Heidolph Reax 2000) and treated 5 min in an ultrasound bath (Bandelin, Sonorex Super RK255H).

[2] = Relaxivity measurements at 1.41 T in human plasma; type: physicochemical; conditions: 37° C., normalized to Gd
Outline: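 T1 determined by inversion recovery (8 inversion-time steps) and T2 by CPMG sequence, both with relaxation delay ≥5×T1. Each relaxivity used three Gd concentrations between 0.05 and 2 mM. Relaxivities were derived from relaxation rates measured in water and plasma.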

[3] = target: T1, OATP1B3 (Homo sapiens, UniProt Q9NPD5); experiment: Uptake into stable transfected OATP1B3 HEK 293 cells; type: cell-based; conditions: for Uptake into OATP1B3-HEK 293 cells: 40 min incubation, relative to RC1 (Gd-EOB-DTPA); for Inhibition Rifampicine: uptake into OATP1B3-HEK 293 cells
T1 sequence (Q9NPD5 1-702): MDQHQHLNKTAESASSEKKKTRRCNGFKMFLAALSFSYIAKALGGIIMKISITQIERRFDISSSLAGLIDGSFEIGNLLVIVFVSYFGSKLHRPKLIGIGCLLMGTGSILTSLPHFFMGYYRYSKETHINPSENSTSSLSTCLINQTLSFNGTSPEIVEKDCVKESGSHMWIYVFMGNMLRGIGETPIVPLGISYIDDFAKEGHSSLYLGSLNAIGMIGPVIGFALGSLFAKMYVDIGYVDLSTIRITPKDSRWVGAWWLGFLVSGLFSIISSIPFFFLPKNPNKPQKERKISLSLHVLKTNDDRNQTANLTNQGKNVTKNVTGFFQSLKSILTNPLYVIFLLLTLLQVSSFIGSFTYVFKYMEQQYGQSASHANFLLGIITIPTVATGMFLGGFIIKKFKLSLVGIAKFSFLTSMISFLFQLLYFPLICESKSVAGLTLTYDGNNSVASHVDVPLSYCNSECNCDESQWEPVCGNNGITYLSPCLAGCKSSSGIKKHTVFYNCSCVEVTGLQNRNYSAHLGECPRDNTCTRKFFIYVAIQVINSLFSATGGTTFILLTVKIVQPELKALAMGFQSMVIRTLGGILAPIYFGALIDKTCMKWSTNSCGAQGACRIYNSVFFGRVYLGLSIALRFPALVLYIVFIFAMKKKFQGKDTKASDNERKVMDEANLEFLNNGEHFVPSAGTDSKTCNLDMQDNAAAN
Outline: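 HEK 293 cells stably transfected with human OATP1B3 were incubated for 40 min with test items at 100 μM final in transport buffer, in triplicate, then washed with cold PBS. Gadoxetate (Gd-EOB-DTPA) served as the reference standard on the same plate.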

[4] = tested on: plasma proteins; experiment: Plasma protein binding, equilibrium dialysis, dog; type: in vitro ADME
Source text: (§1) The binding of Example 1 and 15 to plasma proteins of different species (human, dog, monkey, rabbit, mouse and rat) was investigated in vitro by using equilibrium dialysis in reusable 96-well Micro-Equilibrium Dialysis Devices (ht dialysis) (Banker M J et al. J Pharm Sci. 2003 May; 92 (5): 967-74).

[5] = tested on: plasma proteins; experiment: Plasma protein binding, equilibrium dialysis, monkey; type: in vitro ADME
Source text: as §1

[6] = tested on: plasma proteins; experiment: Plasma protein binding, equilibrium dialysis, human; type: in vitro ADME
Source text: as §1

[7] = In vivo pharmacokinetics following i.v. administration in rat
Procedure: Pharmacokinetic parameters of Example 1 and 15 and were determined in male and female rats (Han-Wistar, n=4). […] The samples were digested using strong acidic and oxidizing conditions at elevated temperature following dilution in 1% nitric acid to bring the samples in the quantification range of the method. The lower limit of quantitation amounts to 1 nmol/L for all elements and the upper limit to 1000 nmol/L in the diluted sample.
The fit of the obtained data to a three-compartment model (Phoenix, WinNonlin 6.4, 3-compartment mode) yielded the pharmacokinetic parameters which are shown in Table 8.

[8] = Excretion study in rats (5 days) and residual gadolinium organ distribution (7 days); type: in vivo, rat; conditions: 0.1 mmol Gd/kg bw i.v.; for Σ organs and carcass [% Dose]: 7 d post injection
Procedure: The excretion and organ distribution of Example 1 and 15 were determined in male rats (Han-Wistar, n=3). The compound was administered as a sterile aqueous solution (50 mmol Gd/L) as a bolus in the tail vein of the animals. The dose was 0.1 mmol Gd/kg bw. Urine was collected in the following time periods 0-1 h, 1-3 h, 3-6 h, 6-24 h, 1-2d and 2-5d post injection […] and feces 0-1d, 1-2d and 2-5d post injection. As a control, 3 animals were treated in the same way with RC1. On day 7 the animals were sacrificed, and the following organs were excised: blood, liver, kidney, spleen, heart, lung, brain, muscle, skin, stomach, gut, bone and bone marrow. The remaining carcass was freeze dried and ground to a fine powder. The Gd concentration in the organs and the carcass was determined by ICP-MS (ICP-MS Agilent 7500a, Waldbronn, Germany). The compounds are excreted via dual pathway (liver and kidney). Less than 1% of the administered dose was present in the body 7 days after the injection.

SMILES | Solubility [1] [mM] | r1 human plasma [2] [L/mmol/s] | Uptake into OATP1B3-HEK 293 cells [3] | Inhibition Rifampicine [3] [% inhibition] | Fraction unbound fu [4] [%] | Fraction unbound fu [5] [%] | Fraction unbound fu [6] [%] | Clplasma Plasma clearance ([7]; dose 25 μmol/kg bw) [mL/min/kg] | Vss Volume of distribution at steady state ([7]; dose 25 μmol/kg bw) [L/kg] | Total recovery [% Dose] [8] [%] | Excretion in urine [% Dose] ([8]; 0-1 h post injection) [%] | Excretion in feces [% Dose] ([8]; 0-1 d post injection) [%] | Excretion in urine [% Dose] ([8]; 1-3 h post injection) [%] | Excretion in feces [% Dose] ([8]; 1-2 d post injection) [%] | Excretion in urine [% Dose] ([8]; 1-2 d post injection) [%] | Excretion in feces [% Dose] ([8]; 2-5 d post injection) [%] | Excretion in urine [% Dose] ([8]; 2-5 d post injection) [%] | Excretion in urine [% Dose] ([8]; 3-6 h post injection) [%] | Excretion in urine [% Dose] ([8]; 6-24 h post injection) [%] | Σ organs and carcass [% Dose] [8] [%] | also measured
CCOc1ccc(CCOCC(C(=O)O)N2CCN(CC(=O)[O-])CCN(CC(=O)[O-])CCN(CC(=O)[O-])CC2)cc1.[Gd+3] (centres unmarked) [Example 1, gadolinium 2,2′,2″-(10-{1-carboxy-2-[2-(4-ethoxyphenyl)ethoxy]ethyl}-1,4,7,10-tetraazacyclododecane-1,4,7-triyl)triacetate] | >258 | 6.5 | 24 % of RC1 | 97 | 96 | 94 | 99 | 26.7 | 0.4 | 98.6 ± 2.1 | 39.8 ± 6.8 | 55.6 ± 5.6 | 40.3 ± 6.8 | 56.9 ± 6.6 | 40.9 ± 7.4 | 57.0 ± 6.6 | 40.9 ± 7.4 | 40.3 ± 6.8 | 40.8 ± 7.4 | 0.65 ± 0.07 | AUC∞ Area under the curve ([7]; dose 25 μmol/kg bw): 16 µM·h; t½ α Half-life, compartment V1 ([7]; dose 25 μmol/kg bw): 1.8 min; t½ β Half-life, compartment V2 ([7]; dose 25 μmol/kg bw): 13 min; t½ γ Half-life, compartment V3 ([7]; dose 25 μmol/kg bw): 114 min; AUC∞ Area under the curve ([7]; dose 250 μmol/kg bw): 315 µM·h; Clplasma Plasma clearance ([7]; dose 250 μmol/kg bw): 13 mL/min/kg; Vss Volume of distribution at steady state ([7]; dose 250 μmol/kg bw): 0.2 L/kg; t½ α Half-life, compartment V1 ([7]; dose 250 μmol/kg bw): 3 min; t½ β Half-life, compartment V2 ([7]; dose 250 μmol/kg bw): 11 min; t½ γ Half-life, compartment V3 ([7]; dose 250 μmol/kg bw): 396 min
CCOCCOCCOc1ccc(CC(C(=O)O)N2CCN(CC(=O)[O-])CCN(CC(=O)[O-])CCN(CC(=O)[O-])CC2)cc1.[Gd+3] (centres unmarked) [Example 2, gadolinium 2,2′,2″-{10-[1-carboxy-2-{4-[2-(2-ethoxyethoxy)ethoxy]phenyl}ethyl]-1,4,7,10-tetraazacyclododecane-1,4,7-triyl}triacetate] | >757 | 6.2 | 56 % of RC1 | 80 | >95 | >95 | >95 |  |  |  |  |  |  |  |  |  |  |  |  |  | 
CCOCCOCCOc1ccc(CCC[C@@H](C(=O)O)N2CCN([C@@H](CO)C(=O)[O-])CCN([C@@H](CO)C(=O)[O-])CCN([C@@H](CO)C(=O)[O-])CC2)cc1.[Gd+3] [Example 15, gadolinium (2S,2′S,2″S)-2,2′,2″-{10-[(1S)-1-carboxy-4-{4-[2-(2-ethoxyethoxy)ethoxy]phenyl}butyl]-1,4,7,10-tetraazacyclododecane-1,4,7-triyl}tris(3-hydroxypropanoate)] | >500 | 8.7 |  | 98 | 91 | 88 | 86 | 45 | 0.4 | 97.9 ± 5.4 | 12.6 ± 11.1 | 78.6 ± 6.2 | 17.3 ± 3.4 | 80.0 ± 5.3 | 17.7 ± 3.3 | 80.0 ± 5.3 | 17.7 ± 3.3 | 17.4 ± 3.3 | 17.6 ± 3.3 | 0.11 ± 0.03 | AUCnorm Area under the curve ([7]; dose 25 μmol/kg bw): 0.38 kg·h/L; t½ α Half-life, compartment V1 ([7]; dose 25 μmol/kg bw): 3 min; t½ β Half-life, compartment V2 ([7]; dose 25 μmol/kg bw): 12 min; t½ γ Half-life, compartment V3 ([7]; dose 25 μmol/kg bw): 588 min
CCOc1ccc(CC(CN(CCN(CC(=O)[O-])CC(=O)[O-])CC(=O)[O-])N(CC(=O)[O-])CC(=O)[O-])cc1.[Gd+3].[Na+].[Na+] (centres unmarked) [RC1, gadoxetate disodium, reference compound] | >250 |  | 100 % of RC1 | 99 |  |  |  |  |  | 104.6 ± 2.4 | 23.2 ± 1.6 | 77.5 ± 2.7 | 23.5 ± 1.5 | 80.6 ± 2.9 | 23.7 ± 1.5 | 80.8 ± 2.9 | 23.7 ± 1.5 | 23.6 ± 1.5 | 23.7 ± 1.5 | 0.14 ± 0.08 | AUCnorm Area under the curve ([7]; dose 100 μmol/kg bw): 0.40 kg·h/L; Clplasma Plasma clearance ([7]; dose 100 μmol/kg bw): 40 mL/min/kg; Vss Volume of distribution at steady state ([7]; dose 100 μmol/kg bw): 0.9 L/kg; t½ α Half-life, compartment V1 ([7]; dose 100 μmol/kg bw): 2 min; t½ β Half-life, compartment V2 ([7]; dose 100 μmol/kg bw): 8 min; t½ γ Half-life, compartment V3 ([7]; dose 100 μmol/kg bw): 390 min

— US20260083864A1, “CONTRAST AGENTS FOR USE IN DIAGNOSTIC COMPUTED TOMOGRAPHY IMAGING” (Bayer Aktiengesellschaft, priority 2022, published 2026)
